Test results: ChEMBL document CHEMBL4725288, “Modulation of TRPV4 and BKCa for treatment of brain diseases” (Bioorg Med Chem, 2020)

What was measured:
[1] = target: Transient receptor potential cation channel subfamily V member 4 (Homo sapiens, UniProt Q9HBA0); test: Antagonist activity at human TRPV4
[2] = Inhibition of TNP-ADP binding to SERCA (unknown origin) by UV dual-wavelength spectrophotometer; parameters: species or system Homo sapiens

Chain of Transient receptor potential cation channel subfamily V member 4 (Q9HBA0 whole entry): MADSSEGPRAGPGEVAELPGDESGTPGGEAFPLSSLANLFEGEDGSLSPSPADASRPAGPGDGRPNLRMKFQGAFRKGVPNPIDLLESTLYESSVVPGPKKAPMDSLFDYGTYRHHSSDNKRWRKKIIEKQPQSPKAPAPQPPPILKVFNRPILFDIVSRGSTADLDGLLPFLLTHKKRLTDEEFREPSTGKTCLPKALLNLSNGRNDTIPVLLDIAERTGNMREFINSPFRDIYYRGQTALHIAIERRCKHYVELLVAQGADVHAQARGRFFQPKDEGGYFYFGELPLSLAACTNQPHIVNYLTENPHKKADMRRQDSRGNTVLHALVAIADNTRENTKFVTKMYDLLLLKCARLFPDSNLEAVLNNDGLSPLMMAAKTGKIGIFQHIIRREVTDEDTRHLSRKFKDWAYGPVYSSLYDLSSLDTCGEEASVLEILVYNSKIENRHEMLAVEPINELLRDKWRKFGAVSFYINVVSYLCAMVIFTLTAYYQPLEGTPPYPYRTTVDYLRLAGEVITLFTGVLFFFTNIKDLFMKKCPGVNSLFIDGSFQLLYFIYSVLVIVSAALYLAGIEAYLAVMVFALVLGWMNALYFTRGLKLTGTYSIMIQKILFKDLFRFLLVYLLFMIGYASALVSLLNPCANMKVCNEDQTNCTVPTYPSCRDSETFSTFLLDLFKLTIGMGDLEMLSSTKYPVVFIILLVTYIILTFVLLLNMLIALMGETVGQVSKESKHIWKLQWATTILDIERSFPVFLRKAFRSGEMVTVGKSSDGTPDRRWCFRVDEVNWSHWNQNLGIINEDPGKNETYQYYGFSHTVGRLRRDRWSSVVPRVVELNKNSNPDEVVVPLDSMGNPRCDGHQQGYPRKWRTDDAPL

SMILES	IC50 [1] [µM]	IC50 [2] [µM]
Cc1c(C(=O)Nc2cccc(C(F)(F)F)c2)cc(-c2ccccc2)n1CCCN1CCOCC1	0.018	
CC(C)(O)[C@H]1O[C@H]2CC[C@@]3(C)[C@@](O)(CC[C@H]4Cc5c([nH]c6ccccc56)[C@@]43C)C2=CC1=O [PAXILLINE]		5
